From ChEMBL document CHEMBL3217530, “Synthesis of coumarinchalcone hybrids and evaluation of their antioxidant and trypanocidal properties” (2013)
The source made the active and inactive calls. The calls are words filed in the database; no cut-off is given here.

How the values were obtained:
[1] = system: Trypanosoma cruzi; test: Antitrypanosomal activity against Trypanosoma cruzi Dm28c epimastigotes assessed as non-viable epimastigotes at 100 umol/L after 4 hrs by MTT assay relative to untreated control; type: functional
[2] = Antioxidant activity assessed as hydroxyl radical scavenging activity after 5 mins by ESR spectroscopy; parameters: concentration or dose not given beside the values
[3] = system: Trypanosoma cruzi; test: Antitrypanosomal activity against Trypanosoma cruzi Dm28c epimastigotes assessed as non-viable epimastigotes at 10 umol/L after 4 hrs by MTT assay relative to untreated control; type: functional
[4] = Antioxidant activity assessed as compound compete with DMPO for hydroxyl radicals by ESR assay; type: functional

Row | SMILES | Activity [1] | Activity [2] | Activity [3] | Activity [4]
1 | O=C(c1ccc(O)c(O)c1)c1cc2ccccc2oc1=O | 38.7% | 84.6% | 23.8% | 
2 | CC1CS(=O)(=O)CCN1/N=C/c1ccc([N+](=O)[O-])o1 (stereo not drawn) [NIFURTIMOX] | 100% |  | 52.5% | 
3 | O=C(c1ccc(O)c(O)c1)c1cc2cc(O)ccc2oc1=O | 46.4% | 84.8% | 18.9% | 
4 | Cc1ccc2oc(=O)c(C(=O)c3ccc(O)c(O)c3)cc2c1 | 47.9% | 82.1% | 27.9% | 
5 | O=C(c1ccc(O)c(O)c1)c1cc2c(O)cc(O)cc2oc1=O | inactive | 84.2% | inactive | 
6 | O=C(c1ccc(O)c(O)c1)c1cc2cc(Br)cc(O)c2oc1=O | 24.1% | 90.9% | 9.5% | Active
